According to article PMC9181987, “Disclosing the Potential of Fluorinated Ionic Liquids as Interferon-Alpha 2b Delivery Systems” (Nanomaterials, 2022):
“And” between values parts separate entries of the source, which are not always exact repeats. Equal values may be shown once. Read-outs that look alike come from different tables or passages of the source.

Assays:
[1] = parameters: method as in earlier work; settings: Water, 25°C, ref [1]; cited from earlier work
IFN-α 2b = target: T1, IFN-α 2b (Homo sapiens, UniProt P01563); assay: Microscale thermophoresis (MST) binding affinity of FILs with labelled IFN-α 2b; settings: for Kd: labelled IFN-α 2b 2.7 μM, 5 mM NaH2PO4 pH 7.4, 25 °C, ± = Kd confidence of the fitting
T1 construct: purchased Sigma-Aldrich SRP4595; host or cells: E. coli
T1 sequence (P01563 24-188): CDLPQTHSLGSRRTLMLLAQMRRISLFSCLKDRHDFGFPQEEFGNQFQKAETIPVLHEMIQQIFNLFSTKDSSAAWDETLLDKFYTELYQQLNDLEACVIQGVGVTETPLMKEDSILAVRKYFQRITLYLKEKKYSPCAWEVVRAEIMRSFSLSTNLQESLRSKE
Procedure: Several dilution series of 16 samples of 20 μL were prepared in triplicate for each studied system. All the solutions were prepared in the buffer of the protein, 5 mM of NaH2PO4 (pH = 7.4), and PCR tubes. In the first tube (1 out 16) 20 μL of FIL stock solution was added at twofold the maximum concentration defined for each assay. In the remaining 15 tubes, 10 μL of buffer was added, followed by the series dilution of the FIL. […] The selected concentrations cover the range where the distinct CACs are formed in each FIL. The excitation power was determined by a pre-test and set to 20% whereas the MST power was set to medium (standard). The assays were executed in standard capillaries and triplicates. The results were processed using the MO.Affinity Analysis v2.3 software (NanoTemper Technologies, Munich, Germany).
In the process of labelling, commonly, one amine per protein is labelled, statistically distributing the position of the dye. […] As explained in the experimental section, in each run of MST, a maximum concentration is chosen and is consecutively diluted in 16 capillaries.

[2] = parameters: method as in earlier work; settings: 25°C, ref [1], cited from earlier work
[3] = cited from earlier work
[4] = Conductivity titration: critical aggregation concentrations, ionization degree, Gibbs free energy of aggregation; type: physicochemical; parameters: First CAC (wFIL) / Third CAC (wFIL): unit not given here; settings: 25°C
Procedure: For this purpose, a CDM210 conductometer (Radiometer Analytical, Lyon, France) and a CDC749 electrode (Radiometer Analytical, Lyon, France) were utilized. The electrode was calibrated at 25 °C using two standard solutions of 0.1 and 0.01 D KCl (Radiometer Analytical). The standard solutions and samples were measured inside of a glass cell in a thermostated bath at 25 °C with constant magnetic stirring. […] Each sample was then placed on the cell, stirred, and had its ionic conductivity measured. […] This experimental procedure was carried out until the ionic conductivity reached a plateau. […] The ionic conductivity was measured at least three times before adding more solution and the uncertainty of each measurement was estimated to be less than 1%.
A thorough analysis of the conductivity profile was advanced by applying the Phillips definition, which studies the change of the slopes of the conductivity curve along with the variation in FIL concentration.
From the parameter α, the degree of counterion binding, β, can be calculated. This parameter is associated with the charge density at the surface, the size, and the hydrophobic nature of the aggregate. It is given by the following equation:β = 1 − α(1)
Another parameter was considered in this study related to the spontaneity of a surfactant to aggregate, given by the standard Gibbs free energy of aggregation, ΔGagg0 . This parameter is provided by the pseudophase model of micellization, using the equation:(2) ΔGagg0=RT(1+β)lnxCAC where R is the universal gas constant, T is the absolute temperature and xCAC corresponds to the value of CAC in molar fraction. As long as this parameter is more negative, this means that the process of aggregation in the specific CACs is more spontaneous.

[5] = 10 μg/mL IFN-α 2b + 5 mM NaH2PO4 (pH=7.4)

For CCn1cc[n+](C)c1.O=S(=O)([O-])C(F)(F)C(F)(F)C(F)(F)C(F)(F)F [[C2C1Im][C4F9SO3], 1-Ethyl-3-methylimidazolium perfluorobutanesulfonate], the “First CAC” value [1] is given as 14.55 mmol/kg, the “First CAC (wFIL)” value [1] is given as 0.0060 and the “Gibbs free energy of aggregation ΔG0agg, First CAC” value [1] is given as -5.9 kcal/mol. The “Gibbs free energy of aggregation ΔG0agg, Second CAC” value [1] was -4.97 kcal/mol, the “Gibbs free energy of aggregation ΔG0agg, Third CAC” value [1] was -6.57 kcal/mol and the “Second CAC” value [1] was 38.54 mmol/kg. For the same molecule, the “Second CAC (wFIL)” value [1] was 0.0158, the “Third CAC” value [1] was 81.03 mmol/kg and the “Third CAC (wFIL)” value [1] was 0.0332. The “ionization degree α, First CAC” value [1] was 0.79, the “ionization degree α, Second CAC” value [1] was 0.84 and the “ionization degree α, Third CAC” value [1] was 0.29. It also gave a Kd (IFN-α 2b; assay 30 − 9.2 × 10^−4 mM FIL) of 0.136 ± 0.117 mM, a Kd (IFN-α 2b; assay 80 − 2.4 × 10^−3 mM FIL) of 7.53 ± 5.61 mM and a Kd (IFN-α 2b; assay 160 − 4.9 × 10^−3 mM FIL) of 40.5 ± 29.5 mM. For the same molecule, the “binding to IFN-α 2b (MST)” value (IFN-α 2b; range of concentrations under the 1st CAC, only FIL monomers) was “no binding was detected”, the “Amin, minimum area per surfactant molecule at the air/water interface” value [2] was 0.64 nm2 and the “10^6 Γmax, maximum surface excess concentration” value ([2]; Water) was 2.60 mol m-2. For the same molecule, the “CAC (wFIL), tensiometer” value ([2]; Water) was 0.0375, the “CAC, tensiometer” value ([2]; Water) was 91.39 mmol⸱kg-1 and the “critical packing parameter Peq 8” value ([2]; Water) was 0.439. The “critical packing parameter Peq 9” value ([2]; Water) was 0.442, the “surface tension at CAC, γCAC” value ([2]; Water) was 24.5 mN m-1 and the “ΔG0ad, standard free energy of adsorption” value ([2]; Water) was -10.6 kcal/mol. For the same molecule, the “ΠCAC, efficacy to reduce the surface tension” value ([2]; Water) was 44.4 mN m-1, the toxicity [3] was “negligible toxicity” and the “First CAC” value [4, 5] was 15.19 mmol/kg. The “First CAC (wFIL)” value [4, 5] was 0.0062, the “Gibbs free energy of aggregation ΔG0agg, First CAC” value [4, 5] was -5.5 kcal/mol and the “Gibbs free energy of aggregation ΔG0agg, Second CAC” value [4, 5] was -4.85 kcal/mol. The “Gibbs free energy of aggregation ΔG0agg, Third CAC” value [4, 5] was -5.69 kcal/mol, the “Second CAC” value [4, 5] was 43.57 mmol/kg and the “Second CAC (wFIL)” value [4, 5] was 0.0179. For the same molecule, the “Third CAC” value [4, 5] was 83.44 mmol/kg, the “Third CAC (wFIL)” value [4, 5] was 0.0342 and the “ionization degree α, First CAC” value [4, 5] was 0.87. For the same molecule, the “ionization degree α, Second CAC” value [4, 5] was 0.85, the “ionization degree α, Third CAC” value [4, 5] was 0.52 and the “First CAC” value ([4]; 5 mM NaH2PO4 (pH=7.4)) was 13.75 mmol/kg. For the same molecule, the “First CAC (wFIL)” value ([4]; 5 mM NaH2PO4 (pH=7.4)) was 0.0056, the “Gibbs free energy of aggregation ΔG0agg, First CAC” value ([4]; 5 mM NaH2PO4 (pH=7.4)) was -5.66 kcal/mol and the “Gibbs free energy of aggregation ΔG0agg, Second CAC” value ([4]; 5 mM NaH2PO4 (pH=7.4)) was -4.83 kcal/mol. The “Gibbs free energy of aggregation ΔG0agg, Third CAC” value ([4]; 5 mM NaH2PO4 (pH=7.4)) was -6.36 kcal/mol, the “Second CAC” value ([4]; 5 mM NaH2PO4 (pH=7.4)) was 46.13 mmol/kg and the “Second CAC (wFIL)” value ([4]; 5 mM NaH2PO4 (pH=7.4)) was 0.0189. For the same molecule, the “Third CAC” value ([4]; 5 mM NaH2PO4 (pH=7.4)) was 83.13 mmol/kg and 80.35 mmol/kg, the “Third CAC (wFIL)” value ([4]; 5 mM NaH2PO4 (pH=7.4)) was 0.0341 and the “ionization degree α, First CAC” value ([4]; 5 mM NaH2PO4 (pH=7.4)) was 0.85. The “ionization degree α, Second CAC” value ([4]; 5 mM NaH2PO4 (pH=7.4)) was 0.85, the “ionization degree α, Third CAC” value ([4]; 5 mM NaH2PO4 (pH=7.4)) was 0.34 and the “First CAC” value ([4]; 25 mM KH2PO4 (pH=6.8)) was 1.99 mmol/kg. The “First CAC (wFIL)” value ([4]; 25 mM KH2PO4 (pH=6.8)) was 0.0008, the “Gibbs free energy of aggregation ΔG0agg, First CAC” value ([4]; 25 mM KH2PO4 (pH=6.8)) was -10.7 kcal/mol and the “Gibbs free energy of aggregation ΔG0agg, Second CAC” value ([4]; 25 mM KH2PO4 (pH=6.8)) was -5.76 kcal/mol. The “Gibbs free energy of aggregation ΔG0agg, Third CAC” value ([4]; 25 mM KH2PO4 (pH=6.8)) was -7.15 kcal/mol, the “Second CAC” value ([4]; 25 mM KH2PO4 (pH=6.8)) was 38.64 mmol/kg and the “Second CAC (wFIL)” value ([4]; 25 mM KH2PO4 (pH=6.8)) was 0.0158. The “Third CAC” value ([4]; 25 mM KH2PO4 (pH=6.8)) was 71.45 mmol/kg, the “Third CAC (wFIL)” value ([4]; 25 mM KH2PO4 (pH=6.8)) was 0.0293 and the “ionization degree α, First CAC” value ([4]; 25 mM KH2PO4 (pH=6.8)) was 0.24. The “ionization degree α, Second CAC” value ([4]; 25 mM KH2PO4 (pH=6.8)) was 0.66, the “ionization degree α, Third CAC” value ([4]; 25 mM KH2PO4 (pH=6.8)) was 0.18 and the “First CAC” value ([4]; 100 mM HCl (pH=1.2)) was 4.65 mmol/kg. For the same molecule, the “First CAC (wFIL)” value ([4]; 100 mM HCl (pH=1.2)) was 0.0019, the “Gibbs free energy of aggregation ΔG0agg, First CAC” value ([4]; 100 mM HCl (pH=1.2)) was -11.1 kcal/mol and the “ionization degree α, First CAC” value ([4]; 100 mM HCl (pH=1.2)) was 0.003. The “First CAC” value ([4]; 150 mM NaCl (pH=7.3)) was 3.51 mmol/kg, the “First CAC (wFIL)” value ([4]; 150 mM NaCl (pH=7.3)) was 0.0014 and the “Gibbs free energy of aggregation ΔG0agg, First CAC” value ([4]; 150 mM NaCl (pH=7.3)) was -10.7 kcal/mol. The “Gibbs free energy of aggregation ΔG0agg, Second CAC” value ([4]; 150 mM NaCl (pH=7.3)) was -5.47 kcal/mol, the “Gibbs free energy of aggregation ΔG0agg, Third CAC” value ([4]; 150 mM NaCl (pH=7.3)) was -7 kcal/mol and the “Second CAC” value ([4]; 150 mM NaCl (pH=7.3)) was 33.69 mmol/kg. The “Second CAC (wFIL)” value ([4]; 150 mM NaCl (pH=7.3)) was 0.0138, the “Third CAC” value ([4]; 150 mM NaCl (pH=7.3)) was 83.46 mmol/kg and the “Third CAC (wFIL)” value ([4]; 150 mM NaCl (pH=7.3)) was 0.0342. For the same molecule, the “ionization degree α, First CAC” value ([4]; 150 mM NaCl (pH=7.3)) was 0.14, the “ionization degree α, Second CAC” value ([4]; 150 mM NaCl (pH=7.3)) was 0.75 and the “ionization degree α, Third CAC” value ([4]; 150 mM NaCl (pH=7.3)) was 0.17. For the same molecule, the “First CAC” value ([4]; 150 mM NaH2PO4 (pH=7.4)) was 14.57 mmol/kg, the “First CAC (wFIL)” value ([4]; 150 mM NaH2PO4 (pH=7.4)) was 0.0060 and the “Gibbs free energy of aggregation ΔG0agg, First CAC” value ([4]; 150 mM NaH2PO4 (pH=7.4)) was -5.59 kcal/mol. For the same molecule, the “Gibbs free energy of aggregation ΔG0agg, Second CAC” value ([4]; 150 mM NaH2PO4 (pH=7.4)) was -5.16 kcal/mol, the “Gibbs free energy of aggregation ΔG0agg, Third CAC” value ([4]; 150 mM NaH2PO4 (pH=7.4)) was -7.05 kcal/mol and the “Second CAC” value ([4]; 150 mM NaH2PO4 (pH=7.4)) was 32.93 mmol/kg. The “Second CAC (wFIL)” value ([4]; 150 mM NaH2PO4 (pH=7.4)) was 0.0135, the “Third CAC” value ([4]; 150 mM NaH2PO4 (pH=7.4)) was 68.76 mmol/kg and the “Third CAC (wFIL)” value ([4]; 150 mM NaH2PO4 (pH=7.4)) was 0.0282. The “ionization degree α, First CAC” value ([4]; 150 mM NaH2PO4 (pH=7.4)) was 0.85, the “ionization degree α, Second CAC” value ([4]; 150 mM NaH2PO4 (pH=7.4)) was 0.82 and the “ionization degree α, Third CAC” value ([4]; 150 mM NaH2PO4 (pH=7.4)) was 0.21.
